Columns and labels:
Assay type in all cases: cell-based
[1] = tested on: LPA-induced MCP-1 in NRK-49F cells; assay: LPA-induced MCP-1 AlphaLISA assay; settings: Rattus norvegicus, final LPA 10 μM, 7 hours; for Emax: read-out: Maximum Inhibition
In short: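 NRK-49F rat fibroblasts, serum-starved overnight, pretreated with compound for 30 min at 37 °C (1% DMSO final), then stimulated with 10 μM LPA final. MCP-1 in the supernatant was measured by mouse/rat CCL2 AlphaLISA. IC50 values came from four-parameter logistic fits of the ratio data.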

LPAR1 [2] = biological target: T1, LPAR1 (Homo sapiens, UniProt Q92633); assay: LPAR1 FLIPR Assay; settings: U2OS cells stably expressing LPAR1, LPA (EC80), Calcium 6 FLIPR dye; for Emax: read-out: Maximum Inhibition
T1 construct: host or cells: U2OS
In short: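 Calcium flux read-out (515-575 nm, FLIPR) in LPAR1-expressing U2OS cells after LPA challenge at EC80, given 3 min after compound addition; cells carried Calcium 6 dye loaded 2 h at 37° C. Eleven-point 3-fold dilutions were fitted with a four-parameter Hill equation for IC50.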

LPAR1 [3] = biological target: T1, LPAR1; assay: IP-One HTRF Assay; settings: U2OS cells stably expressing LPAR1, LPA stimulation, IP-One Tb HTRF kit; for Emax: read-out: Maximum Inhibition
Protocol: U2OS cells stably expressing LPAR1 (Life Technologies #K1519A) were plated at 20000 cells/well in growth medium (McCoy's 5A(Life Technologies #16600-082)) with 10% dFBS (Life Technologies #26400-036), 0.1 mM non-essential amino acids, 25 mM HEPES, 1 mM sodium pyruvate, 1% penicillin/streptomycin, 50 μg/mL hygromycin, and 100 μg/mL Geneticin® in tissue culture treated 384-well white plates (Greiner #781080) in humidified 5% CO2 at 37° C. overnight. On the day of the assay, culture medium was replaced with 30 μL/well of McCoy's 5A with 0.1% BSA. Cells were incubated in humidified 5% CO2 at 37° C. for 3 more hours. Compounds were 3-fold serial diluted from 2 mM for 11-points using dimethyl sulfoxide. 1 μL of compound in DMSO was diluted in 50 μL stimulation buffer from an IP-One Tb HTRF kit (Cisbio #62IPAPEB) immediately before assay. 15 μL/well of 1.33× compound in stimulation buffer was added to cells after removal of culture medium. After 20 minutes of incubation at 37° C., 5 μL/well of 8 μM LPA diluted in stimulation buffer with 0.1% fatty acid free BSA was added to cells. […]. To EC100 wells were added 4×20 μM LPA. To the cells were added 5 μL/well IP1-d2 conjugate and 5 μLwell IP1-K antibody after 2 hours of incubation at 37° C. Cells were incubated at room temperature for 1 hour (protected from light). The plate was then read at 665 nm and 615 nm using an EnVision® Multilabel Plate Reader. IC50 values were calculated from curve fits of the ratio data using a four-parameter logistic Hill equation (Assay Explorer 3.3 Client).

T1 sequence (Q92633 whole entry): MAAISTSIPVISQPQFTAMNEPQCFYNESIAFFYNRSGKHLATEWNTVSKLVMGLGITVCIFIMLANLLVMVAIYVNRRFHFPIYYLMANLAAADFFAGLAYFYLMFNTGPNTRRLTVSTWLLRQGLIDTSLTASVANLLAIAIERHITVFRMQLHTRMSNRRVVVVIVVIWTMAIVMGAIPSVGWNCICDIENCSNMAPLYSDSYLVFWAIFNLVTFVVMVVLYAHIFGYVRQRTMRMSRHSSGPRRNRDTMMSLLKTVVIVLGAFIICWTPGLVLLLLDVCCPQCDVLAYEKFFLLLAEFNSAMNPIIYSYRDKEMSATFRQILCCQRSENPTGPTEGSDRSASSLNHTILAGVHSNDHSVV

Row | Compound | IC50 [1] [nM] | Emax [1] [%] | IC50 (LPAR1 [2]) [nM] | Emax (LPAR1 [2]) [%] | IC50 (LPAR1 [3]) [nM] | Emax (LPAR1 [3]) [%]
1 | CNS(=O)(=O)NC(=O)CCCCN(CCCc1ccccc1)C(=O)c1cc(OC)cc(OC)c1 [Example 74, 3,5-dimethoxy-N-{5-[(methylsulfamoyl)amino]-5-oxopentyl}-N-(3-phenylpropyl)benzamide] | 3880 | 77 | 79 | 67 | 1180 | 63
2 | COc1cc(OC)cc(C(=O)N(CCCCP(=O)(O)O)CCCc2ccccc2)c1 [Example 75, {4-[(3,5-dimethoxybenzoyl)(3-phenylpropyl)amino]butyl}phosphonic Acid] | 3250 | 65 | 20 | 72 | 1070 | 77
3 | CCOP(=O)(O)CCCCN(CCCc1ccccc1)C(=O)c1cc(OC)cc(OC)c1 [Example 76, ethyl hydrogen {4-[(3,5-dimethoxybenzoyl)(3-phenylpropyl)amino]butyl}phosphonate] | > 10000 | 36 | 48 | 76 | 5830 | 65
4 | COc1cc(OC)cc(C(=O)N(CCCc2ccccc2)CCCC(C)C(=O)O)c1 (stereo not drawn) [Example 98, 5-[(3,5-dimethoxybenzoyl)(3-phenylpropyl)amino]-2-methylpentanoic Acid] | 4580 | 66 | 29 | 87 | 836 | 76
5 | COc1cc(OC)cc(C(=O)N(CCCc2ccccc2)CCCC(C)(C)C(=O)O)c1 [Example 108, 5-[(3,5-dimethoxybenzoyl)(3-phenylpropyl)amino]-2,2-dimethylpentanoic Acid] | 668 | 83 | 26 | 94 | 230 | 82
6 | COc1cc(C(=O)N(CCCc2c(F)cccc2F)CCOCC(=O)O)cc(OC)c1C [Example 128, (2-{[3-(2,6-difluorophenyl)propyl](3,5-dimethoxy-4-methylbenzoyl)amino}ethoxy)acetic Acid] | 1080 | 78 | 23 | 89 | 1800 | 101
7 | COc1cc(C(=O)N(CCCCC(=O)O)CCCc2ccc(C)o2)cc(OC)c1C [Example 138, 5-{(3,5-dimethoxy-4-methylbenzoyl)[3-(5-methylfuran-2-yl)propyl]amino}pentanoic Acid] | 1010 | 85 | 13 | 89 | 201 | 87
8 | COc1cc(C(=O)N(CCCCC(=O)NS(=O)(=O)c2ccccn2)CCCc2ccccc2)cc(OC)c1C [Example 141, 3,5-dimethoxy-4-methyl-N-{5-oxo-5-[(pyridine-2-sulfonyl)amino]pentyl}-N-(3-phenylpropyl)benzamide] | 143 | 84 | 28 | 94 | 200 | 76
